# Experimental data: patent US4665078A, “2-(3-amino-5-halo-2-pyridylalkylamino)-pyrimidones useful as histamine H1-antagonists” (Smith Kline & French Laboratories Limited, priority 1983, dated 1987)
# What was measured:
# histamine H2-receptor = molecular target: T1, histamine H2-receptor (Cavia porcellus, UniProt P47747); test: guinea pig atrium test (in vitro histamine H2-antagonist activity); settings: isolated guinea pig right atrium, histamine-induced rate of beating, 60 min contact, 37° C.; read-out: pA2 value (converted)
# T1 construct: a spontaneously beating isolated portion of the guinea pig right atrium is secured under tension; from tissue; host or cells: isolated guinea pig right atrium
# T1 sequence (P47747 whole entry): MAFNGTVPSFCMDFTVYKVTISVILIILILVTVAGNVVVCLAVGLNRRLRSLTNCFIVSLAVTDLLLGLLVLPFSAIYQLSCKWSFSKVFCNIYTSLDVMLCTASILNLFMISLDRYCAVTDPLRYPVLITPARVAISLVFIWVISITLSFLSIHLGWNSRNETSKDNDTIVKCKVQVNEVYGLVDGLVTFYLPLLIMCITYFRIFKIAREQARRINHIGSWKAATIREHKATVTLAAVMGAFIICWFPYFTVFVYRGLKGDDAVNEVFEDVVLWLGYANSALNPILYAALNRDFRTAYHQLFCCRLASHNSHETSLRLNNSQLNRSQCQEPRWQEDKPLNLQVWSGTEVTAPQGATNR
# Procedure: In this test a spontaneously beating isolated portion of the guinea pig right atrium is secured under tension (300 mg) between an anchorage and a transducer in a 15 ml tissue bath and immersed in McEwens solution with constant aeration at a temperature of 37° C. The output from the transducer is amplified. Output is in turn fed to a flat bed recorder. Measured amounts of histamine are added to the tissue bath so that the histamine concentration increases step-wise until the rate of beating reaches a maximum. The tissue bath is washed out and filled with fresh McEwens solution containing compound under test. The solution is left in contact with the tissue for 60 min. and measured amounts of histamine are added again until a maximum rate is recorded. The assay is repeated with increasing concentrations of test compound and the dose of histamine giving 50% of maximum rate is noted. A dose ratio (DR) was calculated by comparing the concentrations of histamine required to produce 50% maximum response in the absence and in the presence of the antagonist. A plot of Log DR-1 against Log D (the concentration of compound under test) is made and the point of intersection with the Log (DR-1) ordinate is taken as the measure of the activity (pA2 value).
# histamine H1-receptor [1] = test: inhibition of H1-agonist induced reduction of blood pressure in the anaesthetised cat; type: in vivo; settings: intravenous (femoral veins), 2-(2-aminoethyl)pyridine-induced reduction in blood pressure
# Procedure: Cats of either sex weighing between 2 and 3 kg were starved overnight and anaesthetised with sodium pentabarbitone (60 mg/kg i.p.). The trachea was cannulated and blood pressure was measured in a femoral artery. The compound under investigation was administered by cannulae in the right and left femoral veins. Anaesthetic was administered as required into one brachial vein. Dose-response curves were constructed by administering a standard H1 -agonist, 2-(2-aminoethyl)pyridine in increasing dose from 10^-8 mol/kg to 10^-5 mol/kg. The 2-(2-aminoethyl)pyridine-induced reduction in blood pressure was measured. The effect of the antagonists can be quantified by displacement of the 2-(2-aminoethyl)pyridine dose-response curve expressed as a dose-ratio. The compounds of Examples 1 and 2 caused displacement of the dose-responsecurves with a dose-ratio of 10 at doses of 0.06 and 0.0058 micromole/kg respectively.
# histamine H1-receptor [2] = molecular target: T2, histamine H1-receptor (Cavia porcellus, UniProt P31389); test: inhibition of histamine induced bronchoconstriction in anaesthetised guinea pigs; type: in vivo; settings: i.v., anaesthetised guinea pig, histamine curve 5 minutes after antagonist
# T2 construct: an isolated portion of the guinea pig ileum is secured under tension; from tissue; host or cells: isolated guinea pig ileum
# T2 sequence (P31389 whole entry): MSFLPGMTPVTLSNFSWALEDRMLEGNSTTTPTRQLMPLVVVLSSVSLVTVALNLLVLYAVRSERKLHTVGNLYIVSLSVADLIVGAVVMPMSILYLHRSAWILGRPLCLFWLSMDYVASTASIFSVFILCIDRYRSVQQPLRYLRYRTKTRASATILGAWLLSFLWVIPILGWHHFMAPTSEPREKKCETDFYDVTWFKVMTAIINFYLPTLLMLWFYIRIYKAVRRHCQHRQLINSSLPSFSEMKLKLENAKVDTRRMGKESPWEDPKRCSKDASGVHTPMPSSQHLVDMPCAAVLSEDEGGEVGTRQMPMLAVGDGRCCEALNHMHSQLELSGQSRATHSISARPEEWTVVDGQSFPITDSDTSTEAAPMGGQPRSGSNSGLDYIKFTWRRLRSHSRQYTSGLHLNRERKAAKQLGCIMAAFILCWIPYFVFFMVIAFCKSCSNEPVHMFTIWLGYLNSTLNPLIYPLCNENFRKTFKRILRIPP
# Procedure: Guinea pigs of either sex are anesthetised by intraperitoneal injection of sodium pentobarbitone, 90 mg/kg. The trachea is cannulated. The animal is respired artificially with a fixed volume of air just adequate to inflate the lungs. The pressure needed to inflate the lungs is monitored from the respiratory system using a low pressure transducer. Intranvenous injection of histamine causes dose-dependent increases in the pressure to inflate the lungs reflecting the bronchoconstrictor action of histamine. Responses to histamine can be antagonised using histamine H1 -receptor antagonists.
# Dose-response curves to histamine are established at 20, 40, 80, 160 and 320 nmols/kg. Antagonists are then administered by intravenous injection and 5 minutes later a new histamine dose-response curve is established increasing the doses of histamine as necessary. The effect of the antagonist can be quantified by the displacement, to the right, of the histamine dose-response curve, expressed as a dose-ratio. A series of doses of antagonists may be given to each animal allowing calculation of dose-ratios for each dose of antagonist. The compounds of Examples 1 and 2 hereafter cause displacement of histamine dose-response curves with a dose-ratio of 10 at doses of less than 0.8 micromole kg^-1 i.v.
# histamine H1-receptor [3] = molecular target: T2, histamine H1-receptor; test: guinea pig ileum test (in vitro histamine H1-antagonist activity); settings: isolated guinea pig ileum, histamine-induced contraction, 8 min contact, 30° C.; read-out: pA2 value (converted)
# Procedure: In this test an isolated portion of the guinea pig ileum is secured under tension (500 mg) between an anchorage and a transducer in a 10 ml tissue bath and immersed in magnesium free Tyrode solution with constant aeration at a temperature of 30° C. The output from the transducer is amplified. The amplified output is in turn fed to a flat bed recorder. Measured amounts of histamine are added to the tissue bath so that the histamine concentration increases step-wise until the force of the contraction reaches a maximum. The tissue bath is washed out and filled with fresh magnesium free Tyrode solution containing compound under test. The solution is left in contact with the tissue for 8 min. and measured amounts of histamine are added again until a maximum contraction is recorded. The assay is repeated with increasing concentrations of test compound and the dose of histamine giving 50% of maximum contraction is noted. A dose ratio (DR) was calculated by comparing the concentrations of histamine required to produce 50% maximum response in the absence and in the presence of the antagonist. A plot of Log DR-1 against Log D (the concentration of compound under test) is made and the point of intersection with the Log (DR-1) ordinate is taken as the measure of the activity (pA2 value).
Kb (histamine H2-receptor),dose causing displacement of histamine dose-response curves with a dose-ratio of 10 (histamine H1-receptor [2]),Kb (histamine H1-receptor [3]),Compound,dose causing displacement of the 2-(2-aminoethyl)pyridine dose-response curve with a dose-ratio of 10 (histamine H1-receptor [1])
> 1000 nM,less than 0.8 micromole kg^-1,< 10 nM,"Cc1ccc(Cc2cnc(NCCCCc3ncc(Br)cc3N)[nH]c2=O)cn1 [Example 1, 2-[4-(5-bromo-3-aminopyrid-2-yl)butylamino]-5-(6-methylpyrid-3-ylmethyl) 4-pyrimidone]",0.06 µmol/kg
,,,"Cc1ccc(Cc2cnc(NCCCCc3ncc(Br)cc3C)[nH]c2=O)cn1 [2-[4-(5-bromo-3-methylpyrid-2-yl)butylamino]-5-(6-methylpyrid-3-ylmethyl)-4-pyrimidone, reference compound]",0.215 µmol/kg
> 1000 nM,less than 0.8 micromole kg^-1,< 10 nM,"Nc1cc(Br)cnc1CCCCNc1ncc(Cc2cc[n+]([O-])cc2)c(=O)[nH]1 [Example 2, 2-[4-(5-bromo-3-aminopyrid-2yl)butylamino]-5-(N-oxopyrid-4-ylmethyl)-4-pyrimidone]",0.0058 µmol/kg
